Experimental data as given in the supplement of paper PMC10307832.

Key:
Experiment in all cases: relative viability (nuclei count vs DMSO), 5 days (fraction); higher = more cells survive
[1] = compound: C#Cc1cccc(Nc2ncnc3cc(OCCOC)c(OCCOC)cc23)c1 [Erlotinib] + Nc1ncn([C@H]2C[C@H](O)[C@@H](CO)O2)c(=O)n1 [Decitabine] (partner 2 µM)
How it was run: (§1)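 Values are medians from duplicate plates. Each reflects relative viability, defined as the nuclei count of treated wells over that of vehicle wells. Lung cancer cell lines in 1536-well plates were pin-tool dosed one day after seeding with one drug alone or with a fixed anchor-drug dose plus five library-drug doses (not always all listed) in √10 steps, then fixed, stained and imaged at 4× after 5 days.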

[2] = compound: O=C(Nc1c[nH]nc1-c1nc2ccc(CN3CCOCC3)cc2[nH]1)NC1CC1 [AT9283] + CS(=O)(=O)CCNCc1ccc(-c2ccc3ncnc(Nc4ccc(OCc5cccc(F)c5)c(Cl)c4)c3c2)o1 [Lapatinib] (partner 2 µM)
How it was run: as §1

[3] = compound: C#Cc1cccc(Nc2ncnc3cc(OCCOC)c(OCCOC)cc23)c1 [Erlotinib] + N=C(N)NC(=N)NCCc1ccccc1 [Phenformin] (partner 250 µM)
How it was run: as §1

[4] = compound: C#Cc1cccc(Nc2ncnc3cc(OCCOC)c(OCCOC)cc23)c1 [Erlotinib] + O=C(CCCCCCC(=O)Nc1ccccc1)NO [Vorinostat] (partner 1 µM)
How it was run: as §1

[5] = compound: C#Cc1cccc(Nc2ncnc3cc(OCCOC)c(OCCOC)cc23)c1 [Erlotinib] + Cc1cc(Nc2cc(N3CCN(C)CC3)nc(Sc3ccc(NC(=O)C4CC4)cc3)n2)n[nH]1 [Tozasertib] (partner 0.1 µM)
How it was run: as §1

| Cell Line | relative viability ([1]; first compound 0.2 µM) | relative viability ([1]; first compound 0.6325 µM) | relative viability ([1]; first compound 2 µM) | relative viability ([2]; first compound 0.003 µM) | relative viability ([2]; first compound 0.03 µM) | relative viability ([2]; first compound 0.09487 µM) | relative viability ([2]; first compound 0.3 µM) | relative viability ([3]; first compound 0.02 µM) | relative viability ([3]; first compound 0.2 µM) | relative viability ([3]; first compound 0.6325 µM) | relative viability ([3]; first compound 2 µM) | relative viability ([4]; first compound 0.02 µM) | relative viability ([4]; first compound 0.2 µM) | relative viability ([4]; first compound 0.6325 µM) | relative viability ([4]; first compound 2 µM) | relative viability ([5]; first compound 0.2 µM) | relative viability ([5]; first compound 0.6325 µM) | relative viability ([5]; first compound 2 µM) | relative viability ([5]; first compound 0.02 µM) | relative viability ([1]; first compound 0.02 µM) |
| --- | --- | --- | --- | --- | --- | --- | --- | --- | --- | --- | --- | --- | --- | --- | --- | --- | --- | --- | --- | --- |
| H3255 | 0.433 | 0.244 | 0.168 | 0.22 | 0.258 | 0.173 | 0.159 | 0.374 | 0.226 | 0.246 | 0.243 | 0.705 | 0.817 | 0.628 | 0.206 | 0.564 | 0.211 | 0.142 | – | – |
| ABC-1 | 0.962 | 0.923 | 1.12 | 0.938 | 1.19 | 0.476 | 0.46 | 0.248 | 0.248 | 0.217 | 0.233 | – | 1.13 | 1.34 | 0.985 | 0.172 | 0.173 | 0.148 | 0.154 | – |
| NCI-H1299 | – | – | – | 1.02 | 0.509 | 0.404 | 0.343 | – | – | – | – | – | – | – | – | – | – | – | – | – |
| NCI-H1993 | 0.483 | 0.553 | 0.531 | 0.813 | 0.672 | 0.631 | 0.632 | 0.564 | 0.59 | 0.573 | 0.549 | 0.811 | 0.724 | 0.633 | 0.461 | 0.518 | 0.569 | 0.591 | 0.574 | 0.602 |
| LOU-NH91 | 0.626 | 0.688 | 0.602 | 0.688 | 0.646 | 0.566 | 0.419 | 0.449 | 0.481 | 0.44 | 0.473 | 0.803 | 0.713 | 0.785 | 0.703 | 0.472 | 0.491 | 0.424 | 0.564 | 0.715 |
| LC-2-ad | 0.79 | 0.735 | 0.656 | 0.938 | 0.0948 | 0.0976 | 0.0947 | 0.566 | 0.643 | 0.592 | 0.534 | 0.731 | 0.794 | 0.75 | 0.589 | 0.383 | 0.414 | 0.345 | 0.484 | 0.889 |
| HCC-15 | 0.623 | 0.644 | 0.563 | 0.745 | 0.37 | 0.159 | 0.142 | 0.472 | 0.491 | 0.63 | 0.382 | 0.876 | – | 0.868 | 0.676 | 0.444 | 0.398 | 0.16 | 0.411 | 0.642 |
| NCI-H650 | 0.313 | 0.303 | 0.307 | 0.832 | 0.842 | 0.252 | 0.199 | 0.424 | 0.462 | 0.449 | 0.479 | 0.487 | 0.496 | 0.59 | 0.449 | – | 0.767 | 0.58 | – | 0.34 |
| NCI-H2009 | 0.347 | 0.35 | 0.374 | 1.01 | 0.337 | 0.31 | 0.305 | 0.533 | 0.51 | 0.529 | 0.49 | 0.758 | 0.713 | 0.775 | 0.667 | 0.746 | 0.834 | 0.62 | 0.751 | 0.333 |
| COR-L 105 | 0.463 | 0.41 | 0.351 | 0.371 | 0.256 | 0.223 | 0.337 | 0.525 | 0.245 | 0.322 | 0.216 | 0.776 | 0.564 | 0.425 | 0.377 | 0.305 | 0.217 | 0.227 | 0.335 | 0.729 |
| NCI-H1975 | 0.402 | 0.409 | 0.332 | 0.891 | 0.225 | 0.208 | 0.196 | 0.415 | 0.377 | 0.405 | 0.38 | 0.722 | 0.726 | 0.701 | 0.58 | 0.549 | 0.251 | 0.142 | 0.773 | 0.431 |
| NCI-H1734 | 0.485 | 0.463 | 0.509 | 0.988 | 0.687 | 0.291 | 0.249 | 0.4 | 0.378 | 0.391 | 0.359 | 0.954 | – | 0.938 | 0.81 | 0.238 | 0.273 | 0.273 | 0.259 | 0.488 |
| NCI-H838 | 0.48 | 0.488 | 0.465 | 0.98 | 0.225 | 0.18 | 0.182 | 0.668 | 0.509 | 0.694 | 0.493 | 0.821 | 0.694 | 0.703 | 0.684 | 0.273 | 0.283 | 0.25 | 0.293 | 0.507 |
| LCLC-103H | 0.688 | 0.716 | 0.639 | – | – | – | – | 0.335 | 0.347 | 0.356 | 0.289 | 0.837 | 0.732 | 0.796 | 0.685 | 0.48 | 0.595 | 0.313 | 0.434 | 0.765 |
| NCI-H2023 | 0.222 | 0.251 | 0.24 | 0.778 | 0.133 | 0.122 | 0.0743 | 0.435 | 0.418 | 0.471 | 0.378 | 0.754 | 0.475 | 0.645 | 0.47 | 0.241 | 0.165 | 0.188 | 0.365 | 0.247 |
| A-427 | 0.562 | 0.592 | 0.582 | 0.936 | 0.897 | 0.671 | 0.219 | 0.282 | 0.344 | 0.423 | 0.335 | 0.844 | 0.834 | 0.932 | 0.892 | 0.225 | 0.197 | 0.162 | 0.251 | 0.585 |
| SK-MES-1 | 0.345 | 0.31 | 0.27 | 0.427 | 0.547 | 0.349 | 0.263 | 0.705 | 0.599 | 0.385 | 0.368 | 1.14 | 0.619 | 0.672 | 0.491 | 0.929 | 0.648 | 0.536 | 0.925 | 0.393 |
